Experimental data as given in US20150366998A1, “ORAL DELIVERY OF DRUG ACTIVES IN LABORATORY ANIMALS USING FAST-DISSOLVING ORAL FILMS” (priority 2014, published 2015).
Entries after “also recorded” stand apart in the source; their conditions may differ.

Columns and labels:
[1] = tested on: mice; details: cited from earlier work
[2] = 30-day oral film study: body weight, food intake, organ weight to tibia length ratio, tolerability; format: in vivo, mice
Excerpt: In this study, there were 4 groups.
IVM was given for 30 days, 5 times per week for 6 weeks. […] After being presented with the tip of the gavage needle, mice would self-administer the oral films.
Ethanol intake was expressed as g/kg/24-h and summarized using means±SEM across groups. A two-way ANOVA was used to analyze 10E intake between the 4 groups over the 30 days of treatment. A one-way ANOVA was used to compare mean 10E intake, 10E preference, water intake, fluid intake, food intake, mouse weight, and organ weight/tibia length ratio across the 4 groups. GraphPAD Prism software (San Diego, Calif.) was used for data analysis.

[3] = tested on: female WT mice; assay: 24-h two-bottle choice paradigm, 10% ethanol in water (10E) vs water, IVM oral thin film or gavage; format: in vivo
[4] = doses needed to produce the anti-alcohol effects (Bortolato 2013)
[5] = IVM 0.21 mg oral thin film, 30 days, vs control and placebo groups

In the case of `CC[C@H](C)[C@H]1O[C@]2(CC[C@@H]1C)C[C@@H]1C[C@@H](C/C=C(\C)[C@@H](O[C@H]3C[C@H](OC)[C@@H](O[C@H]4C[C@H](OC)[C@@H](O)[C@H](C)O4)[C@H](C)O3)[C@@H](C)/C=C/C=C3\CO[C@@H]4[C@H](O)C(C)=C[C@@H](C(=O)O1)[C@]34O)O2` [IVM, ivermectin], the “rewarding properties (addiction liability)” value ([1]; IVM regimen producing anti-alcohol effects) is given as “did not exert rewarding properties”, the “ethanol intake in mice” value ([1]; acute and 7 day administration (Yardley 2012)) is given as “significantly reduce” and the anxiolytic-like effects [1, 4] is given as “elicited anxiolytic-like effects”. For the same compound, the “overt signs of toxicity” value [1, 4] was “did not induce overt signs of toxicity”, the “organ weight to tibia length ratio” value ([2]; IVM 0.21 mg oral thin film, 30 days, 6 organs analyzed, vs control and placebo groups) was “no significant difference; also recorded: without significantly affecting” and the “animal weight gain / change in body weight” value ([2]; IVM 0.21 mg oral thin film, 30 days, vs no action and placebo) was “similar; also recorded: without significantly affecting”. For the same compound, the “tolerability / overt signs of toxicity” value ([2]; chronic (30 day) oral administration of IVM via oral film) was “well tolerated; also recorded: without causing overt signs of toxicity”, the “10E (alcohol) intake” value ([3]; IVM 0.21 mg oral thin film, 30 days, 5 times per week for 6 weeks, vs no action and placebo film) was “drank consistently less 10E; also recorded: effective in reducing 10E intake; also recorded: significantly reduces” and the 10E preference [3, 5] was “significantly less; also recorded: significantly reduces”. For the same compound, the total fluid intake [3, 5] was “similar; also recorded: without significantly affecting”, the “decrease of 10E intake compared to baseline” value ([3]; IVM 0.21 mg via fast dissolving oral film, 24-h two bottle choice, female WT mice, n=8, p<0.001 vs baseline) was “approximately 40%” and the 10E intake ([3]; IVM 5 mg/kg, oral gavage (placebo gavage corn oil)) was “decreased 10E intake”.
